Data on 1 compound can be found in patent US11529319B2, “Methods and compositions for treating neurological conditions” (priority 2017, dated 2022).

One test deals with Mef2c-het mice. The experiment in a line: Immunohistochemistry and stereological cell counting in hippocampus after chronic treatment. Type of test: in vivo, mouse. The settings on record: optical dissector. The source says:
Mef2c heterozygous knockout (Mef2c-het) mice were created by crossing mice carrying the conventional exon 2-deleted allele of Mef2c (Mef2c^Δ2) with their WT littermates. All procedures for maintaining and using these mice were approved by the Institutional Animal Care and Use Committee (IACUC) at the Sanford Burnham Prebys Medical Discovery Institute. In this study, only male mice were used for the behavioral assays to insure uniformity (either with or without drug treatment). Chronic treatment with memantine, NitroSynapsin (both at 4.6 μmol/kg body weight) or vehicle (PBS) was administered via i.p. injection, twice a day for at least 3 months, starting at ˜2.5 weeks of age. This age was chosen because mice are still juveniles and thus treatment could begin in human at an equivalent stage.
Mice were perfused with PBS buffer and then 2% paraformaldehyde in PBS (PFA).
After perfusion, brains were removed and placed into 2% PFA overnight for post-fixation and then sunk in 30% sucrose in PBS prior to freezing. Cryostat sections were cut at a thickness of 15 μm. Sections were soaked in Antigen Unmasking Solution (Vector) and microwaved for 30 s, followed by permeabilization with 0.25% Triton X-100 in PBS for 15 min. Primary antibodies were incubated for 16 h at 4° C. and fluorescence-conjugated secondary antibodies for 2 h at 25° C. Numerous unstained cells in each field served as an internal control for staining specificity. Primary antibodies included: NeuN (mouse, EMD Millipore), activated caspase-3 (rabbit, Cell Signaling), VGLUT1 (guinea pig, SYSY), VGLUT2 (rabbit, SYSY), VGAT (mouse, SYSY), synaptophysin (mouse, Sigma), GFAP (mouse, Sigma), PCNA (mouse, Santa Cruz), DCX (goat, Santa Cruz). TUNEL assay was performed to assess apoptosis using the Roche In Situ Cell Death Detection Kit per vender's instruction. The number of cells positive or percent area occupied by NeuN, activated caspase-3, TUNEL, GFAP, PCNA, or DCX was counted in specific brain regions using an optical dissector, or estimated by quantitative confocal immunohistochemistry or optical density, as described previously.

Test [1] has as its system p38 MAPK/MAPKAPK2/TSC2/mTORC1/S6K1 cascade. The experiment in a line: Western blots of eNMDAR-triggered signaling. Type of test: cell-based. Conditions: 10 μM. An excerpt:
This experiment was replicated 4 times with similar results and quantified in FIG. 20C.
For orientation: A western blot detects proteins with antibodies after separation by electrophoresis.

Test [2] has as its system Tsc2+/- mice. The experiment in a line: Quantitative confocal immunohistochemistry of synaptophysin (SY38) in hippocampus. The settings on record: i.p. loading 92 μmol/kg then 4.6 μmol/kg twice daily, two and a half days. Type of test: in vivo, mouse. The source says: To determine the effects of […] antagonists on the brain histology of Tsc2^+/- mice, quantitative confocal immunohistochemistry was used to analyze coronal brain slices from 3-month-old wild-type (WT) and Tsc2^+/- mice that had been treated for two and a half days with vehicle, memantine or NitroSynapsin. Tsc2+/- mice on the C57Bl/6J background received via the intraperitoneal route either vehicle or a loading dose of 92 μmol/kg of memantine or NitroSynapsin, followed by 4.6 μmol/kg of drug twice daily for two-and-a-half-days, with the last dose 3 hours prior to the behavioral training session (for a total of five drug injections). This dosing regimen yields an effective concentration of drug at NMDARs in the brain of 1-10 μM.

Test [3] concerns Tsc2+/- mice. Description: Fear conditioning test. The settings on record: two-and-a-half-day treatment, last dose 3 hours before training. Type of test: in vivo, mouse. The source says: To determine the effects of eNMDAR antagonists on the brain histology of Tsc2^+/− mice, quantitative confocal immunohistochemistry was used to analyze coronal brain slices from 3-month-old wild-type (WT) and Tsc2^+/− mice that had been treated for two and a half days with vehicle, memantine or NitroSynapsin. Tsc2+/− mice on the C57Bl/6J background received via the intraperitoneal route either vehicle or a loading dose of 92 μmol/kg of memantine or NitroSynapsin, followed by 4.6 μmol/kg of drug twice daily for two-and-a-half-days, with the last dose 3 hours prior to the behavioral training session (for a total of five drug injections). This dosing regimen yields an effective concentration of drug at NMDARs in the brain of 1-10 μM.
Fear conditioning tests were performed on three-month-old Tsc2^+/+ and Tsc2^+/− mice to explore the effects of eNMDAR antagonists on anxiety, and learning and memory deficits in Tsc2^+/− mice. Vehicle, memantine or NitroSynapsin were administered for two and a half days, with the last dose of drug occurring 3-hours prior to the first training session. […] Freezing time of three-month-old WT and Tsc2^+/− transgenic mice treated with vehicle, memantine or NitroSynapsin in fear-conditioning trials. […] Values are mean+s.e.m. (n=7-12 mice per group). […]

The conditions of test [4]: Fung and Hardan 2015; cited from earlier work.

As to `CC12CC3CC(C)(C1)CC(N)(C3)C2` [memantine, reference compound], the “total number of NeuN+ cells in hippocampus” value in the test on Mef2c-het mice is recorded as “but not memantine (M), was significantly greater than in vehicle (V)-treated mice”. In addition, the “phosphorylation/activation of the p38 MAPK/MAPKAPK2/TSC2/mTORC1/S6K1 cascade on eNMDAR stimulation” value in test [1] was “reduced this signaling”. The “synaptophysin (SY38) staining in hippocampus (% area)” value with Tsc2+/- mice [2] is reported as “not statistically significant”. Besides, in the test on Tsc2+/- mice [3], the “context discrimination (freezing time, training vs novel context)” value is recorded as “failed to mitigate this deficit”. Also, the “outcome in human clinical trials for ASD/IDD” value in test [4] is on record as “failed in human clinical trials”.
